# According to US20220016060A1, “USE OF SODIUM 2-(3-PENTYLPHENYL)ACETATE IN THE TREATMENT OF ALSTRÖM SYNDROME” (LIMINAL BIOSCIENCES LIMITED, priority 2018, published 2022):
# “And” between values parts separate entries of the source, which are not always exact repeats. Identical values can stand only once.
# Assays:
# Assay type in all cases: in vivo, human
# [1] = system: ALMS patients; assay: Albumin-to-creatinine ratio (ACR); settings: for Change from Baseline ACR, Mean (SD) / Change from Baseline ACR, Median / ACR: 800 mg daily oral; for ACR: individual subjects, listed as sodium 2-(3-pentylphenypacetate)
# Description: (§1) The study was a Phase 2, single-centre, single-arm, open-label study of sodium 2-(3-pentylphenyl)acetate administered at a total daily oral dose of 800 mg for up to 72 weeks in subjects with ALMS was undertaken. The initial duration of the study was 24 weeks, and subjects were offered to enrol into an extension phase of 36 or 48 weeks. The schedule of study procedures for the enrolment, intervention, and assessments for participants is outlined in FIG. 1. Sodium 2-(3-pentylphenyl)acetate was formulated in soft gelatine capsules containing 200 mg of Sodium 2-(3-pentylphenyl)acetate (amorphous powder) per capsule, polyethylene glycol 400, National Formulary (NF), hydrochloric acid (for pH adjustment), and water. Albuminuria, the increase in excretion of urinary albumin, is marker of kidney damage and is assessed by measuring the ACR. The effect of sodium 2-(3-pentylphenyl)acetate on kidney histology/damage in ALMS patients was assessed by measuring the ACR.
# [2] = system: ALMS patients; assay: Glycated hemoglobin (HbA1c); settings: for Change from Baseline HbA1c, Mean / Change from Baseline HbA1c, Median / HbA1c: 800 mg daily oral; for HbA1c: individual subjects
# Description: The study was a Phase 2, single-centre, single-arm, open-label study of sodium 2-(3-pentylphenyl)acetate administered at a total daily oral dose of 800 mg for up to 72 weeks in subjects with ALMS was undertaken. The initial duration of the study was 24 weeks, and subjects were offered to enrol into an extension phase of 36 or 48 weeks. The schedule of study procedures for the enrolment, intervention, and assessments for participants is outlined in FIG. 1. Sodium 2-(3-pentylphenyl)acetate was formulated in soft gelatine capsules containing 200 mg of Sodium 2-(3-pentylphenyl)acetate (amorphous powder) per capsule, polyethylene glycol 400, National Formulary (NF), hydrochloric acid (for pH adjustment), and water. Glycated hemoglobin (HbA1c) is measured primarily to determine the three-month average blood sugar level, and is used as a diagnostic test for diabetes mellitus and as an assessment test for glycemic control in people with diabetes. HbA1c was assessed in ALMS patients treated with sodium 2-(3-pentylphenyl)acetate. There was a statistically significant mean decrease of 0.53% (p=0.0144) in HbA1c from baseline after 12 weeks of treatment (Table 16).
# [3] = system: ALMS patients; assay: C-peptide; settings: for Change from Baseline C-Peptide, Mean / Change from Baseline C-Peptide, Median: 800 mg daily oral
# Description: as §1, with “water.” for “water. Albuminuria, the increase in excretion of urinary albumin, is marker of kidney damage and is assessed by measuring the ACR. The effect of sodium 2-(3-pentylphenyl)acetate on kidney histology/damage in ALMS patients was assessed by measuring the ACR.”
# [4] = system: ALMS patients; assay: HOMA-B based on C-peptide and fasting plasma glucose; settings: for Change from Baseline HOMA-B Based on C-Peptide and FPG, Mean / Change from Baseline HOMA-B Based on C-Peptide and FPG, Median: 800 mg
# Description: as §1, with “E) Homeostasis Model Assessment for Steady State Beta-Cell Function Based on C-Peptide” for “Albuminuria, the increase in excretion of urinary albumin, is marker of kidney damage”, “Fasting Plasma Glucose (HOMA-B [C-Peptide/FPG])” for “is assessed by measuring the ACR.”, “HOMA-B (C-peptide/FPG) was assessed, and the results are presented” for “kidney histology/damage”, “Table 24.” for “ALMS patients was assessed by measuring the ACR.”
# [5] = Subject 826-001-007, 32-day break in treatment
# [6] = Subject 826-001-013, 30-day break in treatment
# [7] = Subject 826-001-001, 204-day break in treatment
smiles,measurement,setting,value
CCCCCc1cccc(CC(=O)[O-])c1.[Na+] [sodium 2-(3-pentylphenyl)acetate],"Change from Baseline ACR, Mean (SD)","[1]; EP Week 12 (Week 36), N=10",6.19 (16.707) mg/mmol
same,"Change from Baseline ACR, Median","[1]; EP Week 12 (Week 36), N=10",1.25 mg/mmol
same,"Change from Baseline ACR, Mean (SD)","[1]; EP Week 24 (Week 48), N=10",13.30 (28.301) mg/mmol
same,"Change from Baseline ACR, Median","[1]; EP Week 24 (Week 48), N=10",1.30 mg/mmol
same,"Change from Baseline ACR, Mean (SD)","[1]; EP Week 36 (Week 60), N=9",21.32 (44.461) mg/mmol
same,"Change from Baseline ACR, Median","[1]; EP Week 36 (Week 60), N=9",1.60 mg/mmol
same,increase in ACR from baseline,"[1]; Subject 826-001-003, 32-day break in treatment",13.8 mg/mmol
same,increase in ACR from baseline,[1]; [5],133.8 mg/mmol
same,increase in ACR from baseline,[1]; [6],43.9 mg/mmol
same,"Change from Baseline ACR, Mean (SD)","[1]; Week 12, N=12",10.08 (20.848) mg/mmol
same,"Change from Baseline ACR, Median","[1]; Week 12, N=12",0.90 mg/mmol
same,"Change from Baseline ACR, Mean (SD)","[1]; Week 24, N=11",4.96 (14.993) mg/mmol
same,"Change from Baseline ACR, Median","[1]; Week 24, N=11",0.30 mg/mmol
same,ACR,[1]; EP Week 12 (Week 36),7.5 mg/mmol and 18.0 mg/mmol and 7.9 mg/mmol and 2.0 mg/mmol and 2.2 mg/mmol and 95.0 mg/mmol and <2.3 mg/mmol and 8.6 mg/mmol and 56.3 mg/mmol and 0.6 mg/mmol
same,ACR,[1]; EP Week 24 (Week 48),6.2 mg/mmol and 21.6 mg/mmol and 6.7 mg/mmol and 2.1 mg/mmol and 0.8 mg/mmol and 111.7 mg/mmol and 0.7 mg/mmol and 12.9 mg/mmol and 106.5 mg/mmol and <2.3 mg/mmol
same,ACR,[1]; EP Week 36 (Week 60),6.1 mg/mmol and 21.9 mg/mmol and 19.2 mg/mmol and <2.3 mg/mmol (2×) and 178.3 mg/mmol and 1.9 mg/mmol and 8.6 mg/mmol and 85.4 mg/mmol
same,ACR,[1]; Week 12,4.3 mg/mmol and 22.5 mg/mmol and 24.3 mg/mmol and 14.5 mg/mmol and 0.4 mg/mmol and <2.3 mg/mmol (3×) and 89.2 mg/mmol and 15.1 mg/mmol and 102.9 mg/mmol and 15.6 mg/mmol
same,ACR,[1]; Week 24,4.2 mg/mmol and 15.5 mg/mmol and 14.5 mg/mmol and 10.7 mg/mmol and 2.2 mg/mmol and 77.0 mg/mmol and <2.3 mg/mmol and 13.2 mg/mmol and 77.4 mg/mmol and 10.2 mg/mmol and 1.4 mg/mmol
same,subjects in whom HbA1c decreased or did not change from baseline,[2]; 8/12 subjects,66.7%
same,"Change from Baseline HbA1c, Mean","[2]; EP Week 12 (Week 36), N=10",0.24%
same,"Change from Baseline HbA1c, Median","[2]; EP Week 12 (Week 36), N=10",0.00%
same,"Change from Baseline HbA1c, Mean","[2]; EP Week 24 (Week 48), N=10",−0.28%
same,"Change from Baseline HbA1c, Median","[2]; EP Week 24 (Week 48), N=10",−0.30%
same,"Change from Baseline HbA1c, Mean","[2]; EP Week 36 (Week 60), N=9",−0.18%
same,"Change from Baseline HbA1c, Median","[2]; EP Week 36 (Week 60), N=9",−0.10%
same,"Change from Baseline HbA1c, Mean","[2]; EP Week 48 (Week 72), N=3",0.13%
same,"Change from Baseline HbA1c, Median","[2]; EP Week 48 (Week 72), N=3",0.10%
same,HbA1c increase above baseline by the last study visit,[2]; [7],1%
same,HbA1c reduction below baseline,"[2]; Subjects 826-001-007, 826-001-009 and 826-001-014",1%
same,"Change from Baseline HbA1c, Mean","[2]; Week 12, N=12",−0.53%
same,"Change from Baseline HbA1c, Median","[2]; Week 12, N=12",−0.55%
same,"Change from Baseline HbA1c, Mean","[2]; Week 24, N=12",−0.24%
same,"Change from Baseline HbA1c, Median","[2]; Week 24, N=12",−0.05%
same,mean decrease in HbA1c from baseline,"[2]; after 12 weeks of treatment, p=0.0144",0.53%
same,HbA1c,[2]; EP Week 12 (Week 36),12.7% and 5.1% and 5.4% (3×) and 7.5% and 7.3% and 6.4% and 6.2% and 12%
same,HbA1c,[2]; EP Week 24 (Week 48),10.6% (2×) and 4.9% and 4.7% and 5.7% and 6.8% and 5.4% and 6.5% and 6.3% and 6.7%
same,HbA1c,[2]; EP Week 36 (Week 60),11.2% and 5.1% and 5.0% and 7.5% and 5.4% and 6.8% (2×) and 6.4% and 9.1%
same,HbA1c,[2]; EP Week 48 (Week 72),11.1% and 5.0% and 4.9%
same,HbA1c,[2]; Week 12,10.1% and 5.3% and 5.0% and 5.7% (2×) and 8.2% and 5.5% and 6.7% and 6.1% and 10.6% and 6.4% and 6.5%
same,HbA1c,[2]; Week 24,11.1% and 5.4% (2×) and 4.8% and 5.6% and 9.1% and 7.0% and 6.2% and 10.0% and 6.6% and 8.6% and 6.1%
same,"Change from Baseline C-Peptide, Mean","[3]; EP Week 12 (Week 36), N=10",-350.90 pmol/L
same,"Change from Baseline C-Peptide, Median","[3]; EP Week 12 (Week 36), N=10",6.00 pmol/L
same,"Change from Baseline C-Peptide, Mean","[3]; EP Week 24 (Week 48), N=9",-286.67 pmol/L
same,"Change from Baseline C-Peptide, Median","[3]; EP Week 24 (Week 48), N=9",-40.00 pmol/L
same,"Change from Baseline C-Peptide, Mean","[3]; EP Week 36 (Week 60), N=8",219.88 pmol/L
same,"Change from Baseline C-Peptide, Median","[3]; EP Week 36 (Week 60), N=8",-31.00 pmol/L
same,"Change from Baseline C-Peptide, Mean","[3]; EP Week 48 (Week 72), N=3",810.00 pmol/L
same,"Change from Baseline C-Peptide, Median","[3]; EP Week 48 (Week 72), N=3",737.00 pmol/L
same,increase in C-peptide from baseline,[3]; [7],817 pmol/L
same,increase in C-peptide from baseline,"[3]; Subject 826-001-004, 30-day break in treatment",1.757e+06 pmol/L
same,increase in C-peptide from baseline,"[3]; Subject 826-001-005, 39-day break in treatment",737 pmol/L
same,increase in C-peptide from baseline,[3]; [5],3580 pmol/L
same,"Change from Baseline C-Peptide, Mean","[3]; Week 12, N=12",473.50 pmol/L
same,"Change from Baseline C-Peptide, Median","[3]; Week 12, N=12",102.50 pmol/L
same,"Change from Baseline C-Peptide, Mean","[3]; Week 24, N=12",41.25 pmol/L
same,"Change from Baseline C-Peptide, Median","[3]; Week 24, N=12",84.50 pmol/L
same,"Change from Baseline HOMA-B Based on C-Peptide and FPG, Mean","[4]; EP Week 12 (Week 36), N 10",1.70
same,"Change from Baseline HOMA-B Based on C-Peptide and FPG, Median","[4]; EP Week 12 (Week 36), N 10",16.50
same,"Change from Baseline HOMA-B Based on C-Peptide and FPG, Mean","[4]; EP Week 24 (Week 48), N 9",24.57
same,"Change from Baseline HOMA-B Based on C-Peptide and FPG, Median","[4]; EP Week 24 (Week 48), N 9",−1.90
same,"Change from Baseline HOMA-B Based on C-Peptide and FPG, Mean","[4]; EP Week 36 (Week 60), N 8",1.42
same,"Change from Baseline HOMA-B Based on C-Peptide and FPG, Median","[4]; EP Week 36 (Week 60), N 8",8.00
same,"Change from Baseline HOMA-B Based on C-Peptide and FPG, Mean","[4]; EP Week 48 (Week 72), N 3",60.17
same,"Change from Baseline HOMA-B Based on C-Peptide and FPG, Median","[4]; EP Week 48 (Week 72), N 3",89.40
same,"Change from Baseline HOMA-B Based on C-Peptide and FPG, Mean","[4]; Week 12, N 11",52.58
same,"Change from Baseline HOMA-B Based on C-Peptide and FPG, Median","[4]; Week 12, N 11",35.60
same,"Change from Baseline HOMA-B Based on C-Peptide and FPG, Mean","[4]; Week 24, N 12",−1.60
same,"Change from Baseline HOMA-B Based on C-Peptide and FPG, Median","[4]; Week 24, N 12",0.60
same,subjects in whom HOMA-B (C-peptide/FPG) increased from baseline,[4]; 9/12 subjects,75.0%
same,reduction in HOMA-B (C-peptide/FPG),[4]; [7],62.4
same,reduction in HOMA-B (C-peptide/FPG),[4]; [5],33.4
same,reduction in HOMA-B (C-peptide/FPG),[4]; [6],96.7
